According to patent US8686011B2, “Inhibitors of 11-β-hydroxy steroid dehydrogenase type 1” (Amgen Inc., priority 2004, dated 2014):

System: intraocular pressure
Assay: not given
Details: ingestion, normal subjects; cited from earlier work

| SMILES | reduction of intraocular pressure |
| --- | --- |
| CC1(C)[C@@H](OC(=O)CCC(=O)O)CC[C@]2(C)[C@H]3C(=O)C=C4[C@@H]5C[C@@](C)(C(=O)O)CC[C@]5(C)CC[C@@]4(C)[C@]3(C)CC[C@@H]12 [carbenoxolone] | 20% |

Molecular target: T1, 11β-HSD1 (human enzyme) (Homo sapiens, UniProt P28845)
T1 construct: made in house
Assay: Enzyme Assay (SPA, 3H-cortisone, purified HSD-1 enzyme prep), human enzyme
Format: biochemical
Details: species of enzyme not given

T1 sequence (P28845 whole entry): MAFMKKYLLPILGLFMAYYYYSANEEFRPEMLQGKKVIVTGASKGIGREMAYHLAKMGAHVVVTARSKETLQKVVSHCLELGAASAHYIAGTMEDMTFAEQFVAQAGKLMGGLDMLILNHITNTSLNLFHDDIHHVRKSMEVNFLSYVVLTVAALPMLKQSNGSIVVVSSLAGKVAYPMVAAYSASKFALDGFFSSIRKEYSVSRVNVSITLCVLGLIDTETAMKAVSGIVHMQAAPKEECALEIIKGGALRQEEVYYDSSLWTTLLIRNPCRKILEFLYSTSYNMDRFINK

| SMILES | IC50 |
| --- | --- |
| O=C1N=C(Nc2ccccc2F)SC1[C@H]1CCOC1 (stereo partly drawn) [2-(2-fluorophenylamino)-5-((S)-tetrahydrofuran-3-yl)thiazol-4(5H)-one] | < 0.02 µM |
| CC(C)C1(C)SC(NC23CC4CC(CC(F)(C4)C2)C3)=NC1=O (centres unmarked) [2-((3-fluorotricyclo[3.3.1.1˜3,7˜]dec-1-yl)amino)-5-methyl-5-(1-methylethyl)-1,3-thiazol-4(5H)-one] | < 0.02 µM |
| C[C@H](NC1=NC(=O)C(C)(c2ccncc2)S1)c1ccc(F)cc1 (stereo partly drawn) [2-((S)-1-(4-fluorophenyl)ethylamino)-5-methyl-5-(pyridin-4-yl)thiazol-4(5H)-one] | < 0.02 µM |
| O=C1N=C(Nc2ccccc2Cl)SC1C1CCCC1 (centres unmarked) [2-(2-chlorophenylamino)-5-cyclopentylthiazol-4(5H)-one] | < 0.02 µM |
| CC(C)C1(C)SC(N[C@@H](C)C2CCCCC2)=NC1=O (stereo partly drawn) [2-((S)-1-cyclohexylethylamino)-5-isopropyl-5-methylthiazol-4(5H)-one] | < 0.02 µM |
| CCCC1(C)SC(N[C@@H]2C[C@H]3CC[C@@H]2C3)=NC1=O (stereo partly drawn) [2-((1R,2R,4S)-bicyclo[2.2.1]heptan-2-ylamino)-5-methyl-5-propylthiazol-4(5H)-one] | < 0.02 µM |
| CC1(c2ccncc2)SC(Nc2ccccc2Cl)=NC1=O (centres unmarked) [2-(2-chlorophenylamino)-5-methyl-5-(pyridin-4-yl)thiazol-4(5H)-one] | < 0.02 µM |
| O=C1N=C(Nc2ccccc2F)SC1C1CCCC1 (centres unmarked) [5-cyclopentyl-2-(2-fluorophenylamino)thiazol-4(5H)-one] | < 0.02 µM |
| C[C@H](NC1=NC(=O)C(C)(c2ccncc2)S1)c1ccccc1F (stereo partly drawn) [2-((S)-1-(2-fluorophenyl)ethylamino)-5-methyl-5-(pyridin-4-yl)thiazol-4(5H)-one] | < 0.02 µM |
| O=C1N=C(Nc2ccccc2F)SC12CCCC2 [2-((2-fluorophenyl)amino)-1-thia-3-azaspiro[4.4]non-2-en-4-one] | < 0.02 µM |
| CC1(C2CCOCC2)SC(Nc2ccccc2Cl)=NC1=O (centres unmarked) [2-(2-chlorophenylamino)-5-methyl-5-(tetrahydro-2H-pyran-4-yl)thiazol-4(5H)-one] | < 0.02 µM |
| CC1([C@H]2CCOC2)SC(NCC2CCCCC2)=NC1=O (stereo partly drawn) [2-(cyclohexylmethylamino)-5-methyl-5-((S)-tetrahydrofuran-3-yl)thiazol-4(5H)-one] | < 0.02 µM |
| CCC1(C)SC(NC23CC4CC(CC(C4)C2)C3)=NC1=O (centres unmarked) [5-ethyl-5-methyl-2-(tricyclo[3.3.1.1˜3,7˜]dec-1-ylamino)-1,3-thiazol-4(5H)-one] | < 0.02 µM |
| CC(C)C1SC(Nc2ccccc2Cl)=NC1=O (centres unmarked) [2-((2-chlorophenyl)amino)-5-(1-methylethyl)-1,3-thiazol-4(5H)-one] | < 0.02 µM |
| O=C1N=C(NCC2CCCCC2)SC1[C@H]1CCOC1 (stereo partly drawn) [2-(cyclohexylmethylamino)-5-(S)-tetrahydrofuran-3-yl)thiazol-4(5H)-one] | < 0.02 µM |
| O=C1N=C(Nc2ccccc2Cl)SC1C1CCCCC1 (centres unmarked) [2-(2-chlorophenylamino)-5-cyclohexylthiazol-4(5H)-one] | < 0.02 µM |
| Cc1c(Cl)cccc1NC1=NC(=O)C(C(C)C)S1 (centres unmarked) [2-((3-chloro-2-methylphenyl)amino)-5-(1-methylethyl)-1,3-thiazol-4(5H)-one] | < 0.02 µM |
| CC(C)[C@@]1(C)SC(Nc2ccccc2Cl)=NC1=O [(5R)-2-((2-chlorophenyl)amino)-5-methyl-5-(1-methylethyl)-1,3-thiazol-4(5H)-one] | < 0.02 µM |
| CC1(c2ccncc2)SC(Nc2ccccc2C(F)(F)F)=NC1=O (centres unmarked) [5-methyl-5-(pyridin-4-yl)-2-(2-(trifluoromethyl)phenylamino)thiazol-4(5H)-one] | < 0.02 µM |
| CO[C@@H]1CCC[C@@]2(C1)SC(NC1CCCCCCC1)=NC2=O [(5S,7R)-2-(cyclooctylamino)-7-(methyloxy)-1-thia-3-azaspiro[4.5]dec-2-en-4-one] | < 0.02 µM |
| Cc1ccc(F)cc1NC1=NC(=O)C(C(C)C)S1 (centres unmarked) [2-((5-fluoro-2-methylphenyl)amino)-5-(1-methylethyl)-1,3-thiazol-4(5H)-one] | < 0.02 µM |
| CC(C)C1(C)SC(N[C@H](C)c2ccc(F)cc2)=NC1=O (stereo partly drawn) [2-((R)-1-(4-fluorophenyl)ethylamino)-5-isopropyl-5-methylthiazol-4(5H)-one] | < 0.02 µM |
| CC1(CC(F)(F)F)SC(N[C@@H]2C[C@H]3CC[C@@H]2C3)=NC1=O (stereo partly drawn) [2-((1R,2R,4S)-bicyclo[2.2.1]heptan-2-ylamino)-5-methyl-5-(2,2,2-trifluoroethyl)thiazol-4(5H)-one] | < 0.02 µM |
| CC1(c2ccccc2)SC(Nc2ccccc2Cl)=NC1=O (centres unmarked) [2-((2-chlorophenyl)amino)-5-methyl-5-phenyl-1,3-thiazol-4(5H)-one] | < 0.02 µM |
| C[C@@]1(c2ccccc2)SC(Nc2ccccc2Cl)=NC1=O [(5S)-2-((2-chlorophenyl)amino)-5-methyl-5-phenyl-1,3-thiazol-4(5H)-one] | < 0.02 µM |
